Measurements as given in patent publication US20250388542A1, “ANALOGUES OF PENTAMIDINE AND USES THEREFOR” (Auransa Inc., priority 2018, published 2025).
Where “and” joins values, the source holds several entries; their conditions need not be identical. Identical values can stand only once. Entries after “also recorded” stand apart in the source; their conditions may differ.

Key:
[1] = Pharmacokinetics in liver and tissues after oral administration; type: in vivo, mice
Method: Compound 1 (20 mg per kg), Compound 5 (10 mg per kg), and pentamidine (20 mg per kg) were tested for their PK. Tissue samples were collected as described above in Example 23. Briefly, blood samples (approximately […]) were collected under light isoflurane anesthesia from retro orbital plexus of mice at 0.5, 1, 3, 8, 48 and 72 hr. Plasma samples were separated by centrifugation at 2,000×g for 6 minutes and stored below −70±10° C. until bioanalysis. Immediately after collection of blood, animals were euthanized using excess CO2 asphyxiation and samples were collected from set of five mice at each time point. Collected tissue samples were immediately dipped and rinsed three times in ice cold PBS (for 5-10 seconds/rinse using ˜5-10 mL fresh PBS in disposable petri dish for each rinse) and dried on blotting paper. Tissue samples were homogenized using ice-cold phosphate buffer saline (pH7.4) and homogenates were stored below −70±10° C. until analysis. Total homogenate volume was three times the tissue weight except for liver samples, total homogenate volume was ten times the liver weight. Bioanalysis process was determined by fit-for-purpose LC-MS/MS method.
Calibration standards were prepared by spiking the test compound into blank plasma. 10 μL of working calibration standard was spiked into 190 μL of blank Mice Plasma or tissue homogenate to generate linearly spiked calibration standards. Calibrator concentrations were 5,000, 2,000, 1,000, 200, 100, 20, 10, 2 and 1 ng/mL. Calibration standard samples were processed along with the test samples. Twenty-five μL aliquots of plasma or tissue homogenate test samples were treated with 100 μL of acetonitrile containing internal standard (500 ng/mL Glipizide). Samples were vortexed for 5 minutes. Samples were centrifuged for 10 minutes at a speed of 4000 rpm at 4° C. Following centrifugation, 100 μL of clear supernatant was transferred in 96-well plates of and analyzed using LC-MS/MS. Chromatographic separation was achieved using a Kintex Polar column (C18, 100×4.6 mm, 5μ) and column oven temperature 45° C. For compound 1 diHCl the mobile phase A was water with 0.1% formic acid in Acetonitrile; mobile phase B was 10 mM ammonium formate. However, the mobile phase for pentamidine and Compound 5 mobile phase A was water with 0.1% formic acid and mobile phase B acetonitrile with 0.1% formic acid.
The gradient program for Compound 1 was as follows: 5% B (1-2.40 min), 90% B (2.60-3.00 min), and the initial for B was 90%. The retention rate was 1.47 per minute and the internal standard Glipizide was 1 per 9 minutes. The column was maintained at 45° C. For pentamidine and Compound 5, analysis was performed using 233 MassSpec by AB Sciex API5000 with Turbo Ion Spray interface operating in a positive ionization mode. Quantification was performed using multiple reaction monitoring (MRM) method with the transitions of (m/z) 328 à (m/z) 311 for Compound 5 and (m/z) 548 à (m/z) 366 for Edoxaban (internal standard). While, for pentamidine (m/z) 341 à (m/z) 324 and (m/z) 548 à (m/z) 366 for Verapmil (internal standard).
The gradient program for Compound 5 was as follows: 10% B (0-0.2 min), 95% B (1.5-2 min), the initial for B was 10% and it stopped at 2.6 mins. The flow rate was 0.5 mL/min. The gradient program for pentamidine was as follows: 10% B (0-0.2 min), 95% B (1.4-2 min), the initial for B was 10% and it stopped at 2.5 mins. The flow rate was 0.5 mL/min.

[2] = system: COLO 205-Luc colon cancer tumor cells; conditions: mouse, in vivo
Method: Approximately 2.0× Luciferase stably expressing colon cancer tumor cells (COLO 205-Luc) cells suspended in 30 μl of DPBS were injected into cecum wall of BALB/c nude mice.
The animals were assigned into groups using an Excel-based randomization software performing stratified randomization based upon their bioluminescence intensity. Treatment was initiated according to the predetermined regimen as shown in the experimental design table.
Mice were administered compound 1 at 10 mg/k daily, 20 mg/kg daily, 10 mg/kg twice daily, 20 mg/kg twice daily, or 40 mg/kg daily.
The major efficacy endpoint was bioluminescence (intensity values and change from baseline). The surgically inoculated mice were weighed and intraperitoneally administered luciferin at a dose of 150 mg/kg. Ten minutes after the luciferin injection, the animals were pre-anesthetized with the mixture gas of oxygen and isoflurane. When the animals were in a complete anesthetic state, the mice were moved into the imaging chamber for bioluminescence measurements with an IVIS (Lumina II) imaging system. The bioluminescence of the whole animal body, including primary and metastatic tumors, was measured and recorded once per week.
Tumor Growth Inhibition (TGI) was calculated for each group using the formula: TGI (%)=[1−(Ti−T0)/(Vi−V0)]×100; Ti is the average tumor bioluminescence value of a treatment group on a given day, T0 is the average tumor bioluminescence value of the treatment group on day 0, Vi is the average tumor bioluminescence value of the vehicle control group on the same day with Ti, and V0 is the average tumor bioluminescence value of the vehicle group on day 0.
For comparison among three or more groups, a one-way ANOVA was performed. When a non-significant F-statistics (a ratio of treatment variance to the error variance) was obtained, comparisons between groups were carried out with Dunnett t(2-sided). All data were analyzed using SPSS 17.0. p<0.05 is considered to be statistically significant.

[3] = system: Hep3B2.1-7-Luc liver orthotopic model; experiment: Liver orthotopic in vivo analysis; conditions: for mean Total Flux: Q3D for a week then QD three weeks, day 28 post grouping; for Whole liver (with tumor) weights: individual animals 1-8; for Tumor sizes vs vehicle: nonparametric ANOVA followed by Kruskal-Wallis test; for Tumor sizes (signal intensity) vs vehicle: two-way ANOVA and Bonferroni post-test
Method: In this study, the in vivo therapeutic effect of Compound 1 on liver cancer was evaluated in an orthotopic mouse model using Hep3B2.1-7-Luc cell line. Three groups of orthotopic model in BALB/c nude mice were treated with vehicle, Compound 1 at 10 mg/kg, and Compound 1 at 20 mg/kg orally (p.o.) Q3D for a week followed by QD for three weeks. The mean Total Flux (photons/s/10^6) of the mice in vehicle control group reached 1223.01 photons/s/10^6 at day 28 post grouping. The mean Total Flux (photons/s/10^6) was 464.74 and 306.74 for Compound 1 (10 mg/kg) group and Compound 1 (20 mg/kg) group at day 28 post grouping.
A One-way ANOVA combined with Dunnett post-test was performed to compare the results of serum-derived blood chemistries (including ALT, AST, ALP, TP, ALB, UA, UREA, Glu, TC, TG, Ca, Mg, P, CK, LDH, GLB, A/G and CREA) among vehicle and treatment groups. A nonparametric ANOVA followed by Kruskal-Wallis test was performed to compare serum-derived blood chemistries (including ALT, AST and ALP) among vehicle and treatment groups.

N=C(N)c1ccc(OCCCCCOc2ccc(C(=N)N)nc2)cc1 [Compound 1, 5-(5-(4-carbamimidoylphenoxy)pentyloxy)picolinimidamide]
Cmax normalized to dose, liver, relative to pentamidine ([1]; 20 mpk p.o. both): ~7 folds | exposure to the liver vs pentamidine (20 mpk) ([1]; Compound 1 20 mpk, Compound 5 10 mpk, p.o.): greater exposure to the liver than pentamidine | half-life vs pentamidine ([1]; liver, p.o.): higher half-life than pentamidine | tissue exposure ([1]; liver, small intestine, ileum, p.o.): increased exposure in the liver as well as small intestine and ileum | exposure to the plasma ([1]; plasma vs other tissues, p.o.): low in comparison to other tissues | deaths and morbidity [2]: no deaths and no morbidity | tolerability, body weight loss ([3]; 10 mg/kg and 20 mg/kg p.o.): well tolerated in both 10 mg/kg and 20 mg/kg groups with no obvious body weight loss; also recorded: well tolerated at both doses level tested | anti-tumor effect compared to vehicle group (Total Flux) ([3]; 10 mg/kg p.o.): significant anti-tumor effect at day 8 to day 18 and day 28 | mean Total Flux ([3]; 10 mg/kg p.o.): 464.74 photons/s/10^6 | Whole liver (with tumor) weights ([3]; 10 mg/kg): 1.334 g and 2.415 g and 2.602 g and 2.280 g and 3.035 g and 1.817 g and 2.019 g and 2.311 g | Tumor sizes vs vehicle ([3]; 10 mg/kg): no significant difference during the treatment days | Tumor sizes (signal intensity) vs vehicle ([3]; 10 mg/kg): significant difference at day 25 and extremely significant difference at day 28 | anti-tumor effect compared to vehicle group (Total Flux) ([3]; 20 mg/kg p.o.): significant anti-tumor effect at day 8 to day 28 | mean Total Flux ([3]; 20 mg/kg p.o.): 306.74 photons/s/10^6 | in vivo anti-tumor activity (summary) ([3]; 20 mg/kg, day 25 and day 28): significant in vivo anti-tumor activity | Whole liver (with tumor) weights ([3]; 20 mg/kg): 1.681 g and 2.243 g and 1.645 g and 2.012 g and 1.926 g and 1.610 g and 1.603 g and 2.260 g | Tumor sizes vs vehicle ([3]; 20 mg/kg): significant difference at day 28 and extremely significant difference at day 25 | Tumor sizes (signal intensity) vs vehicle ([3]; 20 mg/kg): extremely significant difference at day 22 to day 28 | levels of liver injury/damage markers ALT and AST ([3]; serum, 10 mg/kg and 20 mg/kg): significant reduction in levels of liver injury/damage markers, i.e., ALT and AST, in a dose dependent manner
